Measurements published in patent publication US12055539B2, “HDAC1/2 activator for promoting and/or accelerating myelination and/or remyelination” (UNIVERSITE DE FRIBOURG, priority 2017, dated 2024).
Entries after “also recorded” stand apart in the source; their conditions may differ.

How the values were obtained:
HDAC1/2 [1] = experiment: Immunofluorescence of spinal cord after intrathecal HDAC1/2 inhibitor; format: in vivo, mouse; settings: single intrathecal injection 10 mg/kg, spinal cord collected after 24 h, vs vehicle
Procedure: For immuno fluorescence, adult mice were treated with a single intratechal injection of 10 mg/kg Mocetinostat (HDAC1/2 inhibitor) or its vehicle and their spinal cord was collected 24 h after injection. Mice were killed and perfused with 4% PFA and their spinal cord was processed as described above in Example 8. Primary antibody: EEF1A-pan (Acetyl-Lys41) antibody (rabbit, Assay Biotech, 1:1000, cat. # D12106), CC1 (mouse, 1:200, Calbiochem/Millipore, cat. # OP80).

HDAC1/2 [2] = experiment: Subcellular fractionation, IP and Western blot in de-differentiated rat Schwann cells; format: cell-based
Procedure: Purified primary rat Schwann cell cultures were obtained as described (ref. 5). Rat Schwann cells were then grown in proliferation medium: DMEM containing 10% Fetal calf serum (FCS, Gibco), 1:500 penicillin/streptomycin (Invitrogen), 4 μg/m1 crude GGF (bovine pituitary extract, Bioconcept), and 2 μM forskolin (Sigma), at 37° C. and 5% CO2/95% air. Schwann cell de-differentiation culture protocol was previously described (ref. 6). Briefly, Schwann cells were first growth-arrested in defined medium (DM, ref. 5) for 8 to 15 h, then 1 mM dbcAMP (Sigma) was added to induce differentiation. Cells were incubated in this medium for another 3 days. The medium was then changed to DM only without dbcAMP, and incubated in this medium for 3 days (differentiation mimicking adult Schwann cell stage). To induce de-differentiation, cells were then changed to proliferation medium and incubated in this medium for 3 days.
Two 15-cm culture plates of confluent de-differentiated rat Schwann cells were used per IP. Cells were either treated with 0.6 μM Mocetinostat (HDAC1/2 inhibitor) or its vehicle for 3 days in de-differentiation medium. Cells were washed with PBS and submitted to subcellular fractionation to separate the nuclear from the cytoplasmic fractions. IPs were then carried out on each fraction nuclear and cytoplasmic, as described above. Immunoprecipitating antibodies: 2.5 μg of eEF1A1 (rabbit, Abcam, cat. # ab157455), Sox10 (rabbit, DCS Innovative Diagnostik-Systeme, cat. # 51058C01) or GFP (rabbit, Abcam, cat. # ab290) antibodies were used per IP. Rabbit anti-GFP antibody was used as negative control IP. Acetylation of eEF1A1 and co-immunoprecipitation of acetylated eEF1A with Sox10 were detected using EEF1A-pan (Acetyl-Lys41) primary antibody (rabbit, Assay Biotech, 1:1000, cat. # D12106). Co-immunoprecipitation of HDAC2 with eEF1A1 was detected using an HDAC2 antibody (mouse, Sigma, 1:1000, cat. # H2663). Light chain-specific goat anti-rabbit-HRP or anti-mouse-HRP secondary antibodies (Jackson ImmunoResearch) were used. Detection was done with Immobilon Western Chemiluminescent HRP Substrate (Millipore). Inputs of the IPs were assayed on lysates used for IPs. GAPDH (mouse, Gene Tex, 1:5000, cat. # GTX28245) and LaminA/C (mouse, Sigma, 1:2000, cat. # SAB4200236) antibodies were used to evaluate the efficiency of cytoplasmic and nuclear fractionation.

HDAC1/2 [3] = experiment: Acetyl-lysine immunoprecipitation and LC-MS/MS of sciatic nerves after crush lesion; format: in vivo, mouse; settings: 10 mg/kg in pelvic cavity after sciatic nerve crush, nerves collected 24 h later, compared to vehicle
Procedure: Sciatic nerve crush lesions were carried out in adult mice (3-4 month old) with the following procedure: Isoflurane (3% for induction, 1.5-2% for narcosis during operation) was used for anesthesia. For analgesia, 0.1 mg/kg buprenorphine (Temgesic; Essex Chemie) was administered by i.p. injection 1 h before lesion and 12 hours after the operation. An incision was made at the height of the hip and the sciatic nerve was exposed on one side. The nerve was crushed (5×10 sec with crush forceps: Ref FST 00632-11) and the wound was closed using Histoacryl Tissue Glue (BBraun). After the operation, mice were wrapped in paper towels and placed on a warming pad until recovery from anesthesia.
For immunoprecipitation (IP), the injured sciatic nerve was collected from the lesion site to around 12 mm distal to the lesion site (region where the nerve splits into the three branches of tibial, sural and common peroneal nerves). After perineurium removal, sciatic nerves were frozen in liquid nitrogen, pulverized with a chilled mortar and pestle, lysed in radiolP assay (RIPA) buffer (10 mM Tris/HCl, pH 7.4, 150 mM NaCl, 50 mM NaF, 100 mM NaVO4, 1 mM EDTA, 0.5% wt/vol sodium deoxycholate, and 0.5% Nonidet P-40) for 15 min on ice, and centrifuged to pellet debris. Supernatants were collected and pre-cleared for 1 h with 30 gl protein A/G PLUS agarose beads (Santa Cruz Biotechnology). […]

HDAC2 [4] = experiment: Western blot of P4 sciatic nerve lysates of control and HDAC1/2 dKO mice; format: in vivo, mouse; settings: control mice, 10 mg/kg s.c. once a day for 3 days from P1, nerves at P4
Procedure: In P1 control and dKO mice (as described in Example 2), 10 mg/kg theophylline or its vehicle were injected subcutaneously once a day for 3 days. Sciatic nerves were collected at P4. After perineurium removal, sciatic nerves were frozen in liquid nitrogen, pulverized with a chilled mortar and pestle, lysed in RIPA buffer for 15 min on ice, and centrifuged to pellet debris. Supernatants were collected, submitted to SDS-PAGE and analysed by Western blot. Primary antibodies: HDAC2 (mouse, 1:1000, Sigma, cat. # H2663), Sox10 (rabbit, 1:250, DCS Innovative Diagnostik-Systeme, cat. # SI058C01), GAPDH (glyceraldehyde-3-phosphate-dehydrogenase, mouse, 1:5000, Genetex, cat. # GTX28245), P0 (chicken, 1:1000, Ayes Labs, cat. # PZO). Secondary antibodies were from Jackson ImmunoResearch: light chain-specific goat anti-mouse-HRP (horse radish peroxidase) and goat anti-rabbit-HRP, and heavy chain-specific goat anti-chicken-HRP.

HDAC2 [5] = biological target: T1, HDAC2 (Mus musculus, UniProt P70288); experiment: Immunofluorescence of lysolecithin lesion site in dorsal funiculus of spinal cord; format: in vivo; settings: 14 dpl, treated 9 to 13 days post lysolecithin lesion, vs vehicle
T1 construct: from tissue; host or cells: mouse sciatic nerve (adult after crush; P4 control and Schwann-cell HDAC1/2 dKO pups)
Procedure: A focal demyelinating lesion was induced in the dorsal funiculus of the spinal cord of adult mice by injection of lysolecithin (1 μl at 1%), as described (ref. 9). This demyelination model is used as a model of multiple sclerosis lesion and is well characterized, the kinetics of demyelination and remyelination being well known. Mice were treated as described above in Example 4 with theophylline or vehicle for 4 days from 9 to 13 days post lysolecithin lesion, when OLP start to re-differentiate to remyelinate demyelinated axons. Mice were killed with 150 mg/kg pentobarbital i.p. (Esconarkon; Streuli Pharma AG) and perfused with 4% PFA. Spinal cords were collected, post-fixed for 2 h in 4% PFA, incubated in 30% sucrose overnight at 4° C., embedded in OCT compound and stored at −80° C. Spinal cords were then processed as sciatic nerves for immunofluorescence, as described in Example 2. Primary antibodies: HDAC2 (rabbit, 1:200, Santa Cruz Biotechnology, cat. # sc-7899), CC1 (mouse, 1:200, Calbiochem/Millipore, cat. # OP80), MBP (rat, 1:500, Serotec, cat. # MCA409S), Sox10 (rabbit, 1:250, DCS Innovative Diagnostik-Systeme, cat. # SI058C01).

HDAC2 [6] = biological target: T1, HDAC2; experiment: Western blot of sciatic nerve lysates after sciatic nerve crush lesion; format: in vivo; settings: 10 mg/kg/day i.p. from 9 to 13 dpl, 14 and/or 30 dpl, vs vehicle
Procedure: Adult mice were treated with intraperitoneal injection of 10 mg/kg/day theophylline or its vehicle from 9 to 13 days post sciatic nerve crush lesion. At 14 days post lesion (dpl) the injured sciatic nerve (“crush”) was collected, as well as the same region of the contralateral nerve (“contra”) as internal control for each animal. After perineurium removal, sciatic nerves were frozen in liquid nitrogen, pulverized with a chilled mortar and pestle, lysed in RIPA buffer for 15 min on ice, and centrifuged to pellet debris. Supernatants were collected, and protein concentration was determined by Lowry Protein assay (Bio-Rad Laboratories). Sciatic nerves were submitted to SDS-PAGE and analysed by Western blot. Primary antibodies: HDAC2 (mouse, 1:1000, Sigma, cat. # H2663), Sox10 (rabbit, 1:250, DCS Innovative Diagnostik-Systeme, cat. # SI058C01), GAPDH (glyceraldehyde-3-phosphate-dehydrogenase, mouse, 1:5000, Genetex, cat. # GTX28245), P0 (chicken, 1:1000, Ayes Labs, cat. # PZO), Krox20 (rabbit, 1:500, Axxora, cat. # CO-PRB-236P-100). All secondary antibodies were from Jackson ImmunoResearch: light chain-specific goat anti-mouse-HRP (horse radish peroxidase) and goat anti-rabbit-HRP, and heavy chain-specific goat anti-chicken-HRP.

multiple sclerosis = experiment: Contemplative combination treatment of MS patients; format: in vivo, human
Procedure: In this contemplative example, a group of female and male patients suffering from MS receiving theophylline [250 mg/day] during 1 month in addition to the standard treatment of interferon-β1a.

[7] = test system: lysolecithin demyelinating lesion of the spinal cord; experiment: Electron microscopy of spinal cord after lysolecithin lesion (remyelination); format: in vivo, mouse; settings: 14 and 30 dpl, treated 9 to 13 days post lysolecithin lesion, vs vehicle
Procedure: For electron microscopy analyses, adult mice were submitted to a lysolecithin lesion and treated with theophylline or vehicle, as described above in Example 8. Mice were killed at 14 dpl or 30 dpl with 150 mg/kg pentobarbital i.p. (Esconarkon; Streuli Pharma AG) and perfused with 3% PFA and 0.15% glutaraldehyde in 0.1 M phosphate buffer, pH 7.4. Spinal cords were collected and processed as described above in Example 6.

crushed sciatic nerves = experiment: Electron microscopy of crushed sciatic nerves, myelin thickness (g-ratio); format: in vivo, mouse; settings: 10 mg/kg/day i.p. from 9 to 13 dpl, vs vehicle; for myelin sheath thickness: 10 mg/kg/day
Procedure: Adult mice were treated with theophylline or vehicle as described above in Example 4 from 9 to 13 days post sciatic nerve crush lesion. Injured sciatic nerves were collected for morphological analysis by electron microscopy. Briefly, mice were killed with 150 mg/kg pentobarbital i.p. (Esconarkon; Streuli Pharma AG) and sciatic nerves were fixed in situ with 3% paraformaldehyde and 0.15% glutaraldehyde in 0.1 M phosphate buffer, pH 7.4. Fixed tissues were post-fixed in 2% osmium tetroxide, dehydrated through a graded acetone series as described previously (ref. 7), and embedded in Spurr's resin (Electron Microscopy Sciences). Ultrathin cross-sections (90-nm thick) were made, as described (ref. 7). All analyses were done at 5 mm distal to the lesion site. No contrasting reagent was applied. Images were acquired using a Philips CM 100 BIOTWIN equipped with a Morada side-mounted digital camera (Olympus). The g-ratio of at least 50 axons was measured per animal and 3 animals per group (theophylline or vehicle) were used at 14 dpl. At 30 dpl, only 2 animals were used (more animals will be added at 30 days post lesion for statistical analyses).

[8] = test system: mice after sciatic nerve crush lesion; experiment: Rotarod after sciatic nerve crush lesion; format: in vivo, mouse; settings: 15 rpm, 10 mg/kg/day i.p. from 9 to 13 dpl, vs vehicle
Procedure: (§1) Adult mice were treated with theophylline or vehicle as described above in Example 4 from 9 to 13 days post sciatic nerve crush lesion (carried out as described above in Example 1). Mice were placed three times on the Rotarod apparatus at a fixed speed of 15 rpm to test balance and motor coordination, at 14 and 30 dpl. The duration of each trial was limited to 600 s, and trials were separated by a 30 min recovery period. Latency to fall from the rotating beam was recorded and the average of the three trials was used for quantification. Recovery of sensory function was tested at 14 and 30 dpl by toe pinch test: each toe of the rear foot on the right side (lesioned side) was pinched with equal pressure applied by the same experimenter using flat tip forceps. Immediate withdrawal was recorded as functional sensitivity of the pinched toe. […] All mice were between 3 and 4 months old. The experimenter was blinded regarding the treatment that mice received.

[9] = test system: mice after sciatic nerve crush lesion; experiment: Toe pinch test after sciatic nerve crush lesion; format: in vivo, mouse; settings: 10 mg/kg/day i.p. from 9 to 13 dpl, vs vehicle
Procedure: as §1

[10] = 0.6 μM for 3 days in de-differentiation medium

T1 sequence (P70288 whole entry): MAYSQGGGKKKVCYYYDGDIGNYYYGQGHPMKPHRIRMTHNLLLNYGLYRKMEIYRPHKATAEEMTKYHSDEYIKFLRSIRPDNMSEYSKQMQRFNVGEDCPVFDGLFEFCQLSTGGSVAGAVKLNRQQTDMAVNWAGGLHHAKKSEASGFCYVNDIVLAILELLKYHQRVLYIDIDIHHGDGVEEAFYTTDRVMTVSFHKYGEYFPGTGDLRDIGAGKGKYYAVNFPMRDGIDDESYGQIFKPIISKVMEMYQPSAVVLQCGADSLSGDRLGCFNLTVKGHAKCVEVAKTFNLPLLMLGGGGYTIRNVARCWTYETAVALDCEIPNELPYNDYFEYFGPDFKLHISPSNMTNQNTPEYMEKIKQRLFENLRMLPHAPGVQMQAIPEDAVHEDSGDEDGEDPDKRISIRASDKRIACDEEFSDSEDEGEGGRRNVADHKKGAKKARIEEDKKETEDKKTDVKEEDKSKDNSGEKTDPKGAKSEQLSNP

## Nc1ccccc1NC(=O)c1ccc(CNc2nccc(-c3cccnc3)n2)cc1 [Mocetinostat]
HDAC1/2 [1]
  acetylated eEF1A in mature oligodendrocytes (CC1+): robust increase; also recorded: accumulation of Ace-eEF1A in the nuclei of oligodendrocytes
HDAC1/2 [2]; [10]
  Sox10 expression in the nuclear compartment: strong decrease
  Sox10 localization: partially re-localized from the nuclear to the cytoplasmic compartment
HDAC1/2 [2]; 0.6 μM for 3 days in de-differentiation medium, vs vehicle, predominantly nuclear
  acetylated eEF1A1 levels: strong increase
HDAC1/2 [2]; 0.6 μM for 3 days, nuclear and cytoplasmic fractions
  interaction (co-immunoprecipitation) of acetylated eEF1A with Sox10: potentiated
HDAC1/2 [3]
  abundance of eEF1A1 peptides after immunoprecipitation with anti-acetyl-lysine antibody: increased abundance

## Cn1c(=O)c2[nH]cnc2n(C)c1=O [theophylline]
HDAC2 [4]
  HDAC2 levels: increases; also recorded: increased levels
  P0 levels: increases; also recorded: increased levels
  Sox10 levels: increases; also recorded: increased levels
HDAC2 [5]
  HDAC2 expression in the lesion site of the spinal cord, including differentiated oligodendrocytes (CC1-positive): strongly increases; also recorded: higher amounts of HDAC2
  Sox10 levels in the lesion site: increases; also recorded: higher levels of Sox10
  myelin basic protein (MBP) levels in the lesion site: increases; also recorded: higher myelin content
HDAC2 [6]
  HDAC2 expression levels: increased levels
  Krox20 levels: high increase; also recorded: increased levels
  P0 (myelin protein zero) levels: high increase; also recorded: increased levels
  Sox10 levels: high increase; also recorded: increased levels
Multiple sclerosis; 250 mg/day during 1 month in addition to standard interferon-β1a
  disease progression: in some cases complete stop of disease progression
Multiple sclerosis; 250 mg/day during 1 month in addition to standard interferon-β1a, vs standard treatment only
  remission following an attack (exacerbation): significantly faster remission
Multiple sclerosis; combination therapy with interferon-β1a
  life quality: substantially increased life quality
[7]
  remyelination of the lesioned spinal cord: strongly enhanced
Crushed sciatic nerves; 5 mm distal to lesion site
  g-ratio (axon diameter : [axon+myelin] diameter): significantly lower
Crushed sciatic nerves; 14 dpl
  myelin sheath thickness: thicker myelin sheath
Crushed sciatic nerves; 30 dpl (only 2 animals)
  myelin sheath thickness: presumably also at 30 dpl; also recorded: thicker
[8]; 14 dpl
  performance on the Rotarod (motor function and coordination): higher performances
[8]; 30 dpl
  performance on the Rotarod (motor function and coordination): perform as well as theophylline-treated mice
[9]; 14 dpl
  toe pinch test, recovery of sensory function: recovered the sensitivity of more toes
[9]; 30 dpl
  toe pinch test, recovery of sensory function: vehicle-treated mice had not yet recovered their sensory function as well as theophylline-treated mice
